The record followed here is PubChem BioAssay AID330 (DTP/NCI, 2004).

The test system of the assay is P388 leukemia ip, CD2F1 mice, survival T/C. The experiment in a line: NCI In Vivo Anticancer Drug Screen. Data for tumor model P388 Leukemia (intraperitoneal) in CD2F1 (CDF1) mice. To be noted: endpoint: median survival time, higher = longer survival. The method, boiled down: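 Mice carrying the transplanted tumor received test compound or vehicle. Survival was recorded in each group, and the value is the treated-group measurement divided by that of the vehicle-treated control group.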

Setting [1] is: dose: 12.5 mg/kg/injection, schedule: Q01DX005 (ip), vehicle: Klucel (hydroxypropylcellulose) (HPC).
Where [2] appears, read: dose: 25.0 mg/kg/injection, schedule: Q01DX005 (ip), vehicle: Klucel (hydroxypropylcellulose) (HPC).
Setting [3] is: dose: 50.0 mg/kg/injection, schedule: Q01DX005 (ip), vehicle: Klucel (hydroxypropylcellulose) (HPC).
[4] abbreviates: dose: 5.0 mg/kg/injection, schedule: Q04DX002 (ip), vehicle: saline with Tween-80.
[5] abbreviates: dose: 10.0 mg/kg/injection, schedule: Q04DX002 (ip), vehicle: saline with Tween-80.
Setting [6] is: dose: 60.0 mg/kg/injection, schedule: Q01DX005 (ip), vehicle: saline.
[7] abbreviates: dose: 120.0 mg/kg/injection, schedule: Q01DX005 (ip), vehicle: saline.
The mark [8] stands for this setting: dose: 240.0 mg/kg/injection, schedule: Q01DX005 (ip), vehicle: saline.
Where [9] appears, read: dose: 100.0 mg/kg/injection, schedule: Q01DX009 (ip), vehicle: saline with Tween-80.
Setting [10] is: dose: 200.0 mg/kg/injection, schedule: Q01DX009 (ip), vehicle: saline with Tween-80.
Where [11] appears, read: dose: 400.0 mg/kg/injection, schedule: Q01DX009 (ip), vehicle: saline with Tween-80.
[12] abbreviates: dose: 12.5 mg/kg/injection, schedule: Q01DX005 (ip), vehicle: saline with Tween-80.
Setting [13] is: dose: 25.0 mg/kg/injection, schedule: Q01DX005 (ip), vehicle: saline with Tween-80.
[14] abbreviates: dose: 60.0 mg/kg/injection, schedule: Q01DX005 (ip), vehicle: saline with Tween-80.
The mark [15] stands for this setting: dose: 120.0 mg/kg/injection, schedule: Q01DX005 (ip), vehicle: saline with Tween-80.
[16] abbreviates: dose: 240.0 mg/kg/injection, schedule: Q01DX005 (ip), vehicle: saline with Tween-80.
Where [17] appears, read: dose: 50.0 mg/kg/injection, schedule: Q01DX009 (ip), vehicle: saline with Tween-80.
Setting [18] is: dose: 25.0 mg/kg/injection, schedule: Q01DX009 (ip), vehicle: saline with Tween-80.

“And” between values parts separate entries of the source, which are not always exact repeats. Identical values can stand only once. Inconclusive results and toxic doses are left out.

`CN(C)CCCSc1ccccc1NC1=C(Cl)C(=O)C(Nc2ccccc2SCCCN(C)C)=C(Cl)C1=O`: the T/C is 100 % of control (dose: 6.25 mg/kg/injection, schedule: Q01DX005 (ip), vehicle: Klucel (hydroxypropylcellulose) (HPC)); 106 % of control under setting [1]; 98 % of control under setting [2]; 106 % of control under setting [3]; 108 % of control (dose: 100.0 mg/kg/injection, schedule: Q01DX005 (ip), vehicle: Klucel (hydroxypropylcellulose) (HPC)); 104 % of control (dose: 200.0 mg/kg/injection, schedule: Q01DX005 (ip), vehicle: Klucel (hydroxypropylcellulose) (HPC)).

`O=c1[nH]c2ccccc2c(=O)n1-c1cccs1`: the T/C reads like this: (dose: 100.0 mg/kg/injection, schedule: Q04DX002 (ip), vehicle: saline) 105 % of control; (dose: 200.0 mg/kg/injection, schedule: Q04DX002 (ip), vehicle: saline) 105 % of control; (dose: 400.0 mg/kg/injection, schedule: Q04DX002 (ip), vehicle: saline) 99 % of control.

With `COc1cc(N(CCCl)CCCl)ccc1NC(=O)c1ccccc1`, the T/C (dose: 6.25 mg/kg/injection, schedule: Q01DX009 (ip), vehicle: saline) was 150 % of control; the T/C (dose: 6.25 mg/kg/injection, schedule: Q04DX003 (ip), vehicle: saline with Tween-80) was 109 % of control; the T/C (dose: 12.5 mg/kg/injection, schedule: Q01DX009 (ip), vehicle: saline) is 168 % of control; the T/C (dose: 12.5 mg/kg/injection, schedule: Q04DX003 (ip), vehicle: saline with Tween-80) is 118 % of control; the T/C (dose: 16.5 mg/kg/injection, schedule: Q04DX003 (ip), vehicle: saline sonified) is 113 % of control; the T/C (dose: 25.0 mg/kg/injection, schedule: Q01DX009 (ip), vehicle: saline) is 100 % of control. For the same molecule, the T/C (dose: 37.5 mg/kg/injection, schedule: Q04DX003 (ip), vehicle: saline sonified) is 181 % of control.

Take `C=CC(O)CC#N` (stereo unspecified): the T/C runs as follows: (dose: 18.75 mg/kg/injection, schedule: Q01DX009 (ip), vehicle: saline with Tween-80) 102 % of control; (dose: 37.5 mg/kg/injection, schedule: Q01DX009 (ip), vehicle: saline with Tween-80) 102 % of control; (dose: 75.0 mg/kg/injection, schedule: Q01DX009 (ip), vehicle: saline with Tween-80) 108 % of control.

With `Cc1ccc(-c2nc(N)[nH]c2-c2ccc(C)cc2)cc1`, the T/C reads like this: under setting [4], 104 % of control; under setting [5], 100 % of control; (dose: 20.0 mg/kg/injection, schedule: Q04DX002 (ip), vehicle: saline with Tween-80) 99 % of control.

Consider `OCC1OC(O)C2OCCOCCOC3C(O)C(CO)OC(O)C3OCCOCCOC2C1O` (stereo unspecified), for which the T/C was 101 % of control under setting [6], 95 % of control under setting [7] and 97 % of control under setting [8].

For `OC1(c2ccccc2)c2ccc(Br)cc2-c2cc(Br)ccc21`, the T/C under setting [9] is 101 % of control, the T/C under setting [10] is 104 % of control and the T/C under setting [11] is 100 % of control.

On to `C[C-]=O.C[C-]=O.[C-]#[O+].[C-]#[O+].[C-]#[O+].[C-]#[O+].[Re]`, for which the T/C by setting is: under setting [1], 101 % of control; under setting [2], 96 % of control; under setting [3], 93 % of control.

With `CC1(C)CC[P+](CC[P+]2(c3ccccc3)CCC(C)(C)c3ccccc32)(c2ccccc2)c2ccccc21` (stereo unspecified), the T/C runs as follows: (dose: 0.75 mg/kg/injection, schedule: Q01DX005 (ip), vehicle: saline) 103 % of control; (dose: 1.5 mg/kg/injection, schedule: Q01DX005 (ip), vehicle: saline) 101 % of control; (dose: 3.0 mg/kg/injection, schedule: Q01DX005 (ip), vehicle: saline) 103 % of control; (dose: 3.12 mg/kg/injection, schedule: Q01DX005 (ip), vehicle: suspension in saline) 89 % of control; under setting [12], 100 % of control; under setting [13], 100 % of control. Besides, the T/C (dose: 50.0 mg/kg/injection, schedule: Q01DX005 (ip), vehicle: saline with Tween-80) was 102 % of control.

Take `CC1(C)C=Cc2c(ccc3c(=O)c(-c4ccccc4)coc23)O1`: the T/C by setting is: under setting [14], 94 % of control; under setting [15], 98 % of control; under setting [16], 93 % of control.

Regarding `O=C1CN2C=CC=CC2=NN1`, the T/C is, setting by setting: under setting [6], 100 % of control; under setting [7], 99 % of control; under setting [8], 101 % of control.

With `CS1=C2C(=O)CCCC2=Nc2ccccc21` (stereo unspecified), the T/C reads like this: (dose: 50.0 mg/kg/injection, schedule: Q01DX005 (ip), vehicle: saline) 97 % of control; (dose: 100.0 mg/kg/injection, schedule: Q01DX005 (ip), vehicle: saline) 100 % of control.

As for `N#Cc1ccc(OCCCCOc2ccc(C#N)cc2)cc1`, the T/C (dose: 6.25 mg/kg/injection, schedule: Q01DX005 (ip), vehicle: saline with Tween-80) was 95 % of control; the T/C under setting [12] is 97 % of control; the T/C under setting [13] was 91 % of control.

As to `COC12C=C(C(C)(C)C)C(CC1)C1C(=O)c3c(OC(=O)OCc4ccc([N+](=O)[O-])cc4)ccc(O)c3C(=O)C12` (stereo unspecified), the T/C was 91 % of control (dose: 30.0 mg/kg/injection, schedule: Q01DX005 (ip), vehicle: saline with Tween-80); 86 % of control and 94 % of control under setting [14]; 91 % of control and 92 % of control under setting [15]; 100 % of control under setting [16].

For `NC(=O)C(N)CCCC1NC(=S)N(c2ccccc2)C1=O` (stereo unspecified), the T/C was 92 % of control (dose: 60.0 mg/kg/injection, schedule: Q01DX005 (ip), vehicle: Klucel (hydroxypropylcellulose) (HPC)); 93 % of control (dose: 120.0 mg/kg/injection, schedule: Q01DX005 (ip), vehicle: Klucel (hydroxypropylcellulose) (HPC)); 86 % of control (dose: 240.0 mg/kg/injection, schedule: Q01DX005 (ip), vehicle: Klucel (hydroxypropylcellulose) (HPC)).

As to `O=[N+]([O-])c1ccc(O)cc1C=NCCSc1ccc(Cl)cc1`, the T/C under setting [17] was 100 % of control, the T/C under setting [9] is 100 % of control and the T/C under setting [10] was 103 % of control.

Consider `Cc1cc(NCCO)nc2c1ccc1ccccc12`, for which the T/C under setting [18] is 90 % of control, the T/C under setting [17] was 91 % of control and the T/C under setting [9] was 101 % of control.

With `COP(=O)(OC)/C(=N\NS(=O)(=O)c1ccc(C)cc1)c1ccccc1`, the T/C reads like this: under setting [17], 100 % of control; under setting [9], 103 % of control; under setting [10], 117 % of control; under setting [11], 119 % of control.

Consider `O=C(Nc1ccc(Br)c2ccccc12)c1ccc2ccccc2c1O`, for which the T/C under setting [14] is 91 % of control and the T/C under setting [15] is 92 % of control.

As to `CCCCNCC(O)c1cc2c(Cl)cc(Cl)cc2c2cc(C(F)(F)F)ccc12` (stereo unspecified), the T/C (dose: 6.25 mg/kg/injection, schedule: Q01DX009 (ip), vehicle: saline with Tween-80) is 98 % of control; the T/C (dose: 12.5 mg/kg/injection, schedule: Q01DX009 (ip), vehicle: saline with Tween-80) was 106 % of control; the T/C under setting [18] was 102 % of control.

With `COc1c2occc2c(NC(=O)C(Cl)Cl)c2ccc(=O)oc12`, the T/C was 101 % of control (dose: 2.5 mg/kg/injection, schedule: Q04DX002 (ip), vehicle: saline with Tween-80); 100 % of control under setting [4]; 99 % of control under setting [5].

For the molecule `O=C(CNC(=O)Nc1ccc(Cl)c(Cl)c1)N/N=C/c1c(O)ccc2ccccc12`, the T/C is 96 % of control (dose: 3.75 mg/kg/injection, schedule: Q01DX005 (ip), vehicle: saline with Tween-80); 102 % of control (dose: 7.5 mg/kg/injection, schedule: Q01DX005 (ip), vehicle: saline with Tween-80); 88 % of control and 94 % of control (dose: 15.0 mg/kg/injection, schedule: Q01DX005 (ip), vehicle: saline with Tween-80); 100 % of control under setting [16].

On to `CCCSc1ccc([N+](=O)[O-])cc1`, for which the T/C (dose: 25.0 mg/kg/injection, schedule: Q04DX002 (ip), vehicle: saline with Tween-80) was 103 % of control; the T/C (dose: 50.0 mg/kg/injection, schedule: Q04DX002 (ip), vehicle: saline with Tween-80) was 104 % of control; the T/C (dose: 100.0 mg/kg/injection, schedule: Q04DX002 (ip), vehicle: saline with Tween-80) was 106 % of control.
